Experimental data as given in patent publication US20260027116A1, “Methods of Treating Chronic Graft-Versus-Host Disease Following Allogeneic Hematopoietic Stem Cell Transplantation” (Kadmon Corporation, LLC, priority 2022, published 2026).

Test system: patients with cGVHD

In the case of `CC(C)NC(=O)COc1cccc(-c2nc(Nc3ccc4[nH]ncc4c3)c3ccccc3n2)c1` [Belumosudil, 2-{3-[4-(1H-indazol-5-ylamino)-2-quinazolinyl]phenoxy}-N-(propan-2-yl) acetamide], the “Vertigo: # Events” value (Cohort 1 200 mg QD) is reported as 2, the “Vertigo: Affected/At Risk (%)” value (Cohort 1 200 mg QD) is reported as 2/17 (11.76%) and the “Vision blurred: # Events” value (Cohort 1 200 mg QD) is reported as 0. The “Vision blurred: Affected/At Risk (%)” value (Cohort 1 200 mg QD) was 0/17 (0%), the “Vomiting: # Events” value (Cohort 1 200 mg QD) was 4 and the “Vomiting: Affected/At Risk (%)” value (Cohort 1 200 mg QD) was 2/17 (11.76%). The “Weight decreased: # Events” value (Cohort 1 200 mg QD) was 1, the “Weight decreased: Affected/At Risk (%)” value (Cohort 1 200 mg QD) was 1/17 (5.88%) and the “Weight increased: # Events” value (Cohort 1 200 mg QD) was 9. The “Weight increased: Affected/At Risk (%)” value (Cohort 1 200 mg QD) was 3/17 (17.65%), the “White blood cell count decreased: # Events” value (Cohort 1 200 mg QD) was 1 and the “White blood cell count decreased: Affected/At Risk (%)” value (Cohort 1 200 mg QD) was 1/17 (5.88%). The “Abdominal distension: # Events” value (Cohort 2 200 mg BID) was 0, the “Abdominal distension: Affected/At Risk (%)” value (Cohort 2 200 mg BID) was 0/16 (0%) and the “Abdominal pain upper: # Events” value (Cohort 2 200 mg BID) was 1. For the same compound, the “Abdominal pain upper: Affected/At Risk (%)” value (Cohort 2 200 mg BID) was 1/16 (6.25%), the “Abdominal pain: # Events” value (Cohort 2 200 mg BID) was 4 and the “Abdominal pain: Affected/At Risk (%)” value (Cohort 2 200 mg BID) was 2/16 (12.5%). For the same compound, the “Actinic keratosis: # Events” value (Cohort 2 200 mg BID) was 1, the “Actinic keratosis: Affected/At Risk (%)” value (Cohort 2 200 mg BID) was 1/16 (6.25%) and the “Acute kidney injury: # Events” value (Cohort 2 200 mg BID) was 2. For the same compound, the “Acute kidney injury: Affected/At Risk (%)” value (Cohort 2 200 mg BID) was 2/16 (12.5%), the “Acute respiratory distress syndrome: # Events” value (Cohort 2 200 mg BID) was 0 and the “Acute respiratory distress syndrome: Affected/At Risk (%)” value (Cohort 2 200 mg BID) was 0/16 (0%). The “Adrenal insufficiency: # Events” value (Cohort 2 200 mg BID) was 0, the “Adrenal insufficiency: Affected/At Risk (%)” value (Cohort 2 200 mg BID) was 0/16 (0%) and the “Alanine aminotransferase increased: # Events” value (Cohort 2 200 mg BID) was 4. The “Alanine aminotransferase increased: Affected/At Risk (%)” value (Cohort 2 200 mg BID) was 3/16 (18.75%), the “All grade ALT/AST increased, No. (%)” value (Cohort 2 200 mg BID) was 5 (31) and the “All grade Cough, No. (%)” value (Cohort 2 200 mg BID) was 4 (25). For the same compound, the “All grade Diarrhea, No. (%)” value (Cohort 2 200 mg BID) was 5 (31), the “All grade Dyspnea, No. (%)” value (Cohort 2 200 mg BID) was 6 (38) and the “All grade Fatigue, No. (%)” value (Cohort 2 200 mg BID) was 3 (19). The “All grade Headache, No. (%)” value (Cohort 2 200 mg BID) was 3 (19), the “All grade Hypertension, No. (%)” value (Cohort 2 200 mg BID) was 2 (13) and the “All grade Nausea, No. (%)” value (Cohort 2 200 mg BID) was 4 (25). The “All grade Peripheral edema, No. (%)” value (Cohort 2 200 mg BID) was 4 (25), the “All grade URI, No. (%)” value (Cohort 2 200 mg BID) was 9 (56) and the “All-Cause Mortality, %” value (Cohort 2 200 mg BID) was “(18.75%)”. The “All-Cause Mortality, Affected/At Risk” value (Cohort 2 200 mg BID) was 3/16, the “Anaemia: # Events” value (Cohort 2 200 mg BID) was 8 and the “Anaemia: Affected/At Risk (%)” value (Cohort 2 200 mg BID) was 4/16 (25%). For the same compound, the “Anal incontinence: # Events” value (Cohort 2 200 mg BID) was 0, the “Anal incontinence: Affected/At Risk (%)” value (Cohort 2 200 mg BID) was 0/16 (0%) and the “Anxiety: # Events” value (Cohort 2 200 mg BID) was 3. For the same compound, the “Anxiety: Affected/At Risk (%)” value (Cohort 2 200 mg BID) was 2/16 (12.5%), the “Any AE, No. (%)” value (Cohort 2 200 mg BID) was 16 (100) and the “Arthralgia: # Events” value (Cohort 2 200 mg BID) was 1. For the same compound, the “Arthralgia: Affected/At Risk (%)” value (Cohort 2 200 mg BID) was 1/16 (6.25%), the “Aspartate aminotransferase increased: # Events” value (Cohort 2 200 mg BID) was 2 and the “Aspartate aminotransferase increased: Affected/At Risk (%)” value (Cohort 2 200 mg BID) was 2/16 (12.5%). For the same compound, the “Asthenia: # Events” value (Cohort 2 200 mg BID) was 1, the “Asthenia: Affected/At Risk (%)” value (Cohort 2 200 mg BID) was 1/16 (6.25%) and the “Atelectasis: # Events” value (Cohort 2 200 mg BID) was 0. For the same compound, the “Atelectasis: Affected/At Risk (%)” value (Cohort 2 200 mg BID) was 0/16 (0%), the “Back pain: # Events” value (Cohort 2 200 mg BID) was 2 and the “Back pain: Affected/At Risk (%)” value (Cohort 2 200 mg BID) was 2/16 (12.5%). The “Balance disorder: # Events” value (Cohort 2 200 mg BID) was 1, the “Balance disorder: Affected/At Risk (%)” value (Cohort 2 200 mg BID) was 1/16 (6.25%) and the “Basal cell carcinoma: # Events” value (Cohort 2 200 mg BID) was 1. For the same compound, the “Basal cell carcinoma: Affected/At Risk (%)” value (Cohort 2 200 mg BID) was 1/16 (6.25%), the “Benign prostatic hyperplasia: # Events” value (Cohort 2 200 mg BID) was 0 and the “Benign prostatic hyperplasia: Affected/At Risk (%)” value (Cohort 2 200 mg BID) was 0/16 (0%). For the same compound, the “Blepharitis: # Events” value (Cohort 2 200 mg BID) was 0, the “Blepharitis: Affected/At Risk (%)” value (Cohort 2 200 mg BID) was 0/16 (0%) and the “Blister: # Events” value (Cohort 2 200 mg BID) was 3. For the same compound, the “Blister: Affected/At Risk (%)” value (Cohort 2 200 mg BID) was 2/16 (12.5%), the “Blood alkaline phosphatase increased: # Events” value (Cohort 2 200 mg BID) was 1 and the “Blood alkaline phosphatase increased: Affected/At Risk (%)” value (Cohort 2 200 mg BID) was 1/16 (6.25%). The “Blood chloride decreased: # Events” value (Cohort 2 200 mg BID) was 1, the “Blood chloride decreased: Affected/At Risk (%)” value (Cohort 2 200 mg BID) was 1/16 (6.25%) and the “Blood cholesterol increased: # Events” value (Cohort 2 200 mg BID) was 0. The “Blood cholesterol increased: Affected/At Risk (%)” value (Cohort 2 200 mg BID) was 0/16 (0%), the “Blood creatine increased: # Events” value (Cohort 2 200 mg BID) was 1 and the “Blood creatine increased: Affected/At Risk (%)” value (Cohort 2 200 mg BID) was 1/16 (6.25%). The “Blood creatine phosphokinase increased: # Events” value (Cohort 2 200 mg BID) was 0, the “Blood creatine phosphokinase increased: Affected/At Risk (%)” value (Cohort 2 200 mg BID) was 0/16 (0%) and the “Blood creatinine increased: # Events” value (Cohort 2 200 mg BID) was 1. For the same compound, the “Blood creatinine increased: Affected/At Risk (%)” value (Cohort 2 200 mg BID) was 1/16 (6.25%), the “Blood loss anaemia: # Events” value (Cohort 2 200 mg BID) was 0 and the “Blood loss anaemia: Affected/At Risk (%)” value (Cohort 2 200 mg BID) was 0/16 (0%). For the same compound, the “Bronchial secretion retention: # Events” value (Cohort 2 200 mg BID) was 1, the “Bronchial secretion retention: Affected/At Risk (%)” value (Cohort 2 200 mg BID) was 1/16 (6.25%) and the “Bronchitis: # Events” value (Cohort 2 200 mg BID) was 0. For the same compound, the “Bronchitis: Affected/At Risk (%)” value (Cohort 2 200 mg BID) was 0/16 (0%).
